Reference: ChEMBL document CHEMBL4041544, “Discovery of new selective glucocorticoid receptor agonist leads” (Bioorg Med Chem Lett, 2017)
Values after ≈ are worked out from the molar mass of the structure shown.

target: T1, Glucocorticoid receptor (Homo sapiens, UniProt P04150); experiment: Transrepression activity at glucocorticoid receptorin human HeLa cells assessed as inhibition of TPA-induced collagenase promoter activity by luciferase reporter gene assay; assay type: cell-based; conditions: not given
T1 sequence (P04150 whole entry): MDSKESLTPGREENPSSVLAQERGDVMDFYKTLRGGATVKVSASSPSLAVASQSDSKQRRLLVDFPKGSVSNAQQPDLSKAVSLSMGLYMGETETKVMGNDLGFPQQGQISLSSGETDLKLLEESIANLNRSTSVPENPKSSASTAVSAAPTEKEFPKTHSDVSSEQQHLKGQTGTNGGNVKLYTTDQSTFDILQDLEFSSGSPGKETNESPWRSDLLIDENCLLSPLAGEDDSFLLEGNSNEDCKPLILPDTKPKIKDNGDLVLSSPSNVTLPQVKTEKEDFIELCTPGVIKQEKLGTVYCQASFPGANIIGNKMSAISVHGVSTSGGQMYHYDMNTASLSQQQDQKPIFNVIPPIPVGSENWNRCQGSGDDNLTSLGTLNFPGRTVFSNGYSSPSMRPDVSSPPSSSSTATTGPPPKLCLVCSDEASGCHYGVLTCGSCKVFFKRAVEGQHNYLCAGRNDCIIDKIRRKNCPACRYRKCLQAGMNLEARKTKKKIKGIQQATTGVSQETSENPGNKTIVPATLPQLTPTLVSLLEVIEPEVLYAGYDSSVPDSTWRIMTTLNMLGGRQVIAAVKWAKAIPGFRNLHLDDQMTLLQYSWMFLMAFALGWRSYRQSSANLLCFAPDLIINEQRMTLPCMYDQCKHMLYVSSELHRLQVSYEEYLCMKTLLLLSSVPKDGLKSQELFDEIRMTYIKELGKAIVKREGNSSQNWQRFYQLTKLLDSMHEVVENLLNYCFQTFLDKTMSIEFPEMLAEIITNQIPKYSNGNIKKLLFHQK

IC50 | Compound
6.31 nM | CC[C@@H]1C[C@](O)(C(F)(F)F)[C@@H](Nc2cc(F)cc3nc(C)ncc23)c2ccc(F)c(O)c21

target: T1, Glucocorticoid receptor; experiment: Transactivation activity at glucocorticoid receptor in human HeLa cells assessed as induction of MMTV promoter activity by luciferase reporter gene assay; assay type: cell-based; conditions: not given

pEC50 | Compound
7.6 | CC[C@@H]1C[C@](O)(C(F)(F)F)[C@@H](Nc2cc(F)cc3nc(C)ncc23)c2ccc(F)c(O)c21

target: T1, Glucocorticoid receptor; experiment: Transrepression activity at glucocorticoid receptor in human THP1 cells assessed as receptor-mediated anti-inflammatory activity by measuring inhibition of LPS-induced IL-8 production; assay type: cell-based; conditions: not given

IC50 | Compound
6.31 nM | CC[C@@H]1C[C@](O)(C(F)(F)F)[C@@H](Nc2cc(F)cc3nc(C)ncc23)c2ccc(F)c(O)c21

target: T1, Glucocorticoid receptor; experiment: Binding affinity to recombinant human glucocorticoid receptor expressed in baculovirus infected sf9 cells; conditions: not given

IC50 | Compound
126 nM | CC[C@@H]1C[C@](O)(C(F)(F)F)[C@@H](Nc2cc(F)cc3nc(C)ncc23)c2ccc(F)c(O)c21

target: T2, Progesterone receptor (Homo sapiens, UniProt P06401); experiment: Binding affinity to recombinant human progesterone receptor expressed in baculovirus infected sf9 cells; conditions: not given
T2 sequence (P06401 whole entry): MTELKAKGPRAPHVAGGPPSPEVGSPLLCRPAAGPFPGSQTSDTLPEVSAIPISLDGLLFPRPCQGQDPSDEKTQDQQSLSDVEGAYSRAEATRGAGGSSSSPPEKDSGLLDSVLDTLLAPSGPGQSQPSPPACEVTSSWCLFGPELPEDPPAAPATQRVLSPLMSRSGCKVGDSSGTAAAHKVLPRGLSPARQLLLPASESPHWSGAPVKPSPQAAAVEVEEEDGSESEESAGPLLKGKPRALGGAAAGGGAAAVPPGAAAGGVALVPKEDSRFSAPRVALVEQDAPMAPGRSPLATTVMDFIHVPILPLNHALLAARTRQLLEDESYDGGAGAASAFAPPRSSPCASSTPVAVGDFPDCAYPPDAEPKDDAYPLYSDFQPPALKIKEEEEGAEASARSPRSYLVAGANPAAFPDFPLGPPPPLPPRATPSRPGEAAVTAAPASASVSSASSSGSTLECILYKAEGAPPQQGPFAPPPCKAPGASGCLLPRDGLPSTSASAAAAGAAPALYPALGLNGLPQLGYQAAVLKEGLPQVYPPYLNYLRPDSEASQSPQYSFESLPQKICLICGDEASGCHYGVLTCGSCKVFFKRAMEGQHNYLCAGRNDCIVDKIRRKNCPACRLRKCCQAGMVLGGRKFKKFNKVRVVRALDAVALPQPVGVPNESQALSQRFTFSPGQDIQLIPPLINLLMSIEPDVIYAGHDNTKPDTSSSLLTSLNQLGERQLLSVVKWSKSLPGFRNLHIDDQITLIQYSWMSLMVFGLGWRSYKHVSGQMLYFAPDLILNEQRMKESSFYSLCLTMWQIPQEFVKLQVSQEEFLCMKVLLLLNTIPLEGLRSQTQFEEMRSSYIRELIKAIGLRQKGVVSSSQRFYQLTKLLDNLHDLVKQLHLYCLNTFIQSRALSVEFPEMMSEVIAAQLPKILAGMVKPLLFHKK

IC50 | Compound
> 1000 nM | CC[C@@H]1C[C@](O)(C(F)(F)F)[C@@H](Nc2cc(F)cc3nc(C)ncc23)c2ccc(F)c(O)c21

target: T3, Mineralocorticoid receptor (Homo sapiens, UniProt P08235); experiment: Binding affinity to recombinant human mineralocorticoid receptor expressed in baculovirus infected sf9 cells; conditions: not given
T3 sequence (P08235 whole entry): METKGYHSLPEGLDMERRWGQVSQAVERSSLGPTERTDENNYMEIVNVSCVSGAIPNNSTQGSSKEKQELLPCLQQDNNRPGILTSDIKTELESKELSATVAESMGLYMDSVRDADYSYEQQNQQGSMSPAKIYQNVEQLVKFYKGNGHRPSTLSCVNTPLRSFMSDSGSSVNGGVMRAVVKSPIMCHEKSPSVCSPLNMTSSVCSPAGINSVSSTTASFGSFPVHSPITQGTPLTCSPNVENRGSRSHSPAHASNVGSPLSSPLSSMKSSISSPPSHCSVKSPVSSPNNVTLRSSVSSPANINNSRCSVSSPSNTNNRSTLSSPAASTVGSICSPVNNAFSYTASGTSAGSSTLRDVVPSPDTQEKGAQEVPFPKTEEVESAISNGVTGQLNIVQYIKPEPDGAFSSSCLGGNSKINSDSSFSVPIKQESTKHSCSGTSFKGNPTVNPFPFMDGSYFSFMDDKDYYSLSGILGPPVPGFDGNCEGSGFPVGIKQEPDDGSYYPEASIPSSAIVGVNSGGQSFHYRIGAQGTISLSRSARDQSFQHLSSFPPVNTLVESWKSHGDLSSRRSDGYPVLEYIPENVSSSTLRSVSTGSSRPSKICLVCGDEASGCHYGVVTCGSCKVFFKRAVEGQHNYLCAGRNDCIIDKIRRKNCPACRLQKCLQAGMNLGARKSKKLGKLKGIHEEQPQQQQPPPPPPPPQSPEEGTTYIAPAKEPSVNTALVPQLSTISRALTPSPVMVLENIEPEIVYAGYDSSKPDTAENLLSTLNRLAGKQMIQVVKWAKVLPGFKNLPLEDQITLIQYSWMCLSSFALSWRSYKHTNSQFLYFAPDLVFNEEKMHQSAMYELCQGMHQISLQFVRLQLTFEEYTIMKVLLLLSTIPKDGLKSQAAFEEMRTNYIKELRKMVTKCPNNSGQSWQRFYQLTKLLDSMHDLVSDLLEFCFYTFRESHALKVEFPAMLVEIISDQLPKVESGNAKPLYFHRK

IC50 | Compound
> 1000 nM | CC[C@@H]1C[C@](O)(C(F)(F)F)[C@@H](Nc2cc(F)cc3nc(C)ncc23)c2ccc(F)c(O)c21

target: T4, Androgen receptor (Homo sapiens, UniProt P10275); experiment: Binding affinity to recombinant human androgen receptor expressed in baculovirus infected sf9 cells; conditions: not given
T4 sequence (P10275 whole entry): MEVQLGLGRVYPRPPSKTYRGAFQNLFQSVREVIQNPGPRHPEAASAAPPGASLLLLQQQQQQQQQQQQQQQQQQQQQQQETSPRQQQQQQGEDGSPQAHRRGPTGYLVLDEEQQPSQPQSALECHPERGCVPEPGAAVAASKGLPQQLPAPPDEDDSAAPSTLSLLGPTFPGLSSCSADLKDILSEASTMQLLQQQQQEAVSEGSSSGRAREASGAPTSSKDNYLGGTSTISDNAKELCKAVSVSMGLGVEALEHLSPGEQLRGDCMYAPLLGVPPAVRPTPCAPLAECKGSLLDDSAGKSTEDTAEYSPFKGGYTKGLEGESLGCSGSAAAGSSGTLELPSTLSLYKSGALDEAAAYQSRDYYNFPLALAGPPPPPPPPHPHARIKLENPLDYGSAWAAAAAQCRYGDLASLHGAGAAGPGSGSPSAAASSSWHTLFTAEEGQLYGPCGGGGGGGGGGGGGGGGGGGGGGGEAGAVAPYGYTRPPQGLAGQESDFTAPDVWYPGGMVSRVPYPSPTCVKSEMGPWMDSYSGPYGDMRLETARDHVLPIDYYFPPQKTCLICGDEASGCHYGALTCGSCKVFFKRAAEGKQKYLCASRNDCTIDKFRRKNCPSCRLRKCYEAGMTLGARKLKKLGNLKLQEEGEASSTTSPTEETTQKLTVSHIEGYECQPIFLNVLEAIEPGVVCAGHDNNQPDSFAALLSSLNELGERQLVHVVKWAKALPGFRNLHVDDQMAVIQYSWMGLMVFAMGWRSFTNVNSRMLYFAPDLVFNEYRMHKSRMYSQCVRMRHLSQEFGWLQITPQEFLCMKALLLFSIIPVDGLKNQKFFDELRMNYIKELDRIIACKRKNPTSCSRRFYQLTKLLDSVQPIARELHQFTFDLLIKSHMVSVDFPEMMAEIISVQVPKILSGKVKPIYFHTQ

IC50 | Compound
> 1000 nM | CC[C@@H]1C[C@](O)(C(F)(F)F)[C@@H](Nc2cc(F)cc3nc(C)ncc23)c2ccc(F)c(O)c21

system: not listed separately; experiment: Stability in human liver microsomes assessed as drug recovery after 30 mins; assay type: ADME, microsome; conditions: read-out: Drug recovery

remaining at 0.5 h | Compound
98% | CC[C@@H]1C[C@](O)(C(F)(F)F)[C@@H](Nc2cc(F)cc3nc(C)ncc23)c2ccc(F)c(O)c21

system: not listed separately; experiment: Thermodynamic solubility of the compound in 0.1 M phosphate buffer at pH 7.4 at 25 degC; assay type: physicochemical; conditions: read-out: Therm_solubility

solubility thermodynamic | Compound
26 µg/mL (≈ 57.3 µM) | CC[C@@H]1C[C@](O)(C(F)(F)F)[C@@H](Nc2cc(F)cc3nc(C)ncc23)c2ccc(F)c(O)c21

system: not listed separately; experiment: Lipophilicity, log P of the compound; assay type: physicochemical; conditions: octanol/water

logP | Compound
4 | CC[C@@H]1C[C@](O)(C(F)(F)F)[C@@H](Nc2cc(F)cc3nc(C)ncc23)c2ccc(F)c(O)c21

system: not listed separately; experiment: Blood clearance in rat at 1.25 mg/kg, iv administered as bolus dose; assay type: ADME, organism-based; conditions: whole blood

clearance | Compound
26.7 mL/min/kg | CC[C@@H]1C[C@](O)(C(F)(F)F)[C@@H](Nc2cc(F)cc3nc(C)ncc23)c2ccc(F)c(O)c21

system: not listed separately; experiment: Volume of distribution at steady state in rat at 1.25 mg/kg, iv administered as bolus dose; assay type: ADME, organism-based; conditions: in vivo, read-out: Vdss

Vd | Compound
11 L/kg | CC[C@@H]1C[C@](O)(C(F)(F)F)[C@@H](Nc2cc(F)cc3nc(C)ncc23)c2ccc(F)c(O)c21

system: not listed separately; experiment: Half life in rat at 1.25 mg/kg, iv administered as bolus dose; assay type: ADME, organism-based; conditions: in vivo

half-life | Compound
5.8 h | CC[C@@H]1C[C@](O)(C(F)(F)F)[C@@H](Nc2cc(F)cc3nc(C)ncc23)c2ccc(F)c(O)c21

system: not listed separately; experiment: Oral bioavailability in rat at 10 mg/kg dosed as microcrystalline suspension; assay type: ADME, organism-based; conditions: in vivo

bioavailability | Compound
59% | CC[C@@H]1C[C@](O)(C(F)(F)F)[C@@H](Nc2cc(F)cc3nc(C)ncc23)c2ccc(F)c(O)c21

system: Rattus norvegicus; experiment: Anti-inflammatory activity in po dosed Wistar rat assessed as inhibition of croton oil-induced ear edema; assay type: functional; conditions: not given

Compound | ED50
CC[C@@H]1C[C@](O)(C(F)(F)F)[C@@H](Nc2cc(F)cc3nc(C)ncc23)c2ccc(F)c(O)c21 | 1.4 mg/kg

system: Rattus norvegicus; experiment: Anti-inflammatory activity in po dosed Brown Norway rat assessed as inhibition of TMA-induced ear edema; assay type: functional; conditions: not given

Compound | ED50
CC[C@@H]1C[C@](O)(C(F)(F)F)[C@@H](Nc2cc(F)cc3nc(C)ncc23)c2ccc(F)c(O)c21 | 1.3 mg/kg

system: Rattus norvegicus; experiment: Anti-inflammatory activity in Wistar rat assessed as inhibition of croton oil-induced ear edema at 30 mg/kg, po relative to control; assay type: functional; conditions: not given

Compound | Imax
CC[C@@H]1C[C@](O)(C(F)(F)F)[C@@H](Nc2cc(F)cc3nc(C)ncc23)c2ccc(F)c(O)c21 | 124%

system: Rattus norvegicus; experiment: Anti-inflammatory activity in Brown Norway rat assessed as inhibition of TMA-induced ear edema at 30 mg/kg, po relative to control; assay type: functional; conditions: not given

Compound | Imax
CC[C@@H]1C[C@](O)(C(F)(F)F)[C@@H](Nc2cc(F)cc3nc(C)ncc23)c2ccc(F)c(O)c21 | 55%
